Non-standard residues stand in square brackets, D forms with d. Residues, ends and D or L forms follow the SMILES beside them. No end group written: not given here. Ahx = NCCCCCC(=O)O
Test system: primary cardiomyocytes
Assay: STS-induced DNA fragmentation (Cell Death detection ELISA PLUS) in primary cardiomyocytes
Assay type: cell-based, mouse
Details: for reduction of DNA fragmentation: peptide given together with staurosporine, 1 μM, related to STS-treated cells (=100%), FIG. 5B
Procedure: FIG. 5: In vitro evaluation of the anti-apoptotic activity of CPPs and CPP-conjugates. Workflow and quantitation of DNA fragmentation in (A) C2C12 cells, (B) primary cardiomyocytes, (C) H9c2 cells and (D) NG108-15 cells. Data were normalized to 100% STS. Data shown are the means±SEM, with n≧5. Cells were seeded in 24-well plates and grown overnight. The next day, the cells were incubated with STS alone or with STS+1 μM peptide (in OPTI-MEM) (OPTI-MEM® is a modification of Eagle's Minimum Essential Media, buffered with HEPES and sodium bicarbonate, and supplemented with hypoxanthine, thymidine, sodium pyruvate, L-glutamine, trace elements, and growth factors) (STS concentration and incubation time for each cells are given in the figure). Thereafter, solutions were removed, replaced by complete medium and further incubated for 40 h. Following the regeneration phase, the cells were lyzed and DNA fragmentation was detected according to manufacturer's instructions (Cell Death detection ELISA^PLUS kit—Roche Diagnostics).
FIG. 6: Anti-apoptotic activity of variants of the Tat-DAXXp sequence on primary cardiomyocytes. As described in the caption of FIG. 5, the different analogues of the DAXXp sequence (see Table 2) were assessed for anti-apoptotic properties against STS (Cell Death detection ELISA^PLUS kit—Roche Diagnostics) (A-B). None of the analogues were able to protect the primary cardiomyocytes—a fact which confirms that the 16mer DAXXp has the optimal length and sequence for highest cardioprotective effect.
FIG. 7: Comparison of the murine/rat DAXXp with the human DAXXp sequence in terms of anti-apoptotic activity on C2C12 cells, primary cardiomyocytes, and H9c2. The murine DAXXp sequence conjugated to Tat (Tat-mDAXXp—SEQ ID NO: 61) which is identical to the rat DAXXp sequence (see FIG. 1B), was compared to the human construct (Tat-DAXXp) in terms of anti-apoptotic properties against STS (Cell Death detection ELISA^PLUS kit—Roche Diagnostics). The C2C12 cells and the primary cardiomyocytes used were from mice and the H9c2 cells from rat.
FIG. 9: Comparison of FADDp constructs with Tat-DAXXp in terms of anti-apoptotic activity in primary cardiomyocytes and in H9c2 cells. Quantification of DNA normalized to 100% STS. Data shown are the means±SEM, with n≧5. Cells were seeded in 24-well plates and grown overnight. The next day, the cells were incubated with STS alone or with STS+1 μM peptide (in OPTI-MEM®) (OPTI-MEM® is a modification of Eagle's Minimum Essential Media, buffered with HEPES and sodium bicarbonate, and supplemented with hypoxanthine, thymidine, sodium pyruvate, L-glutamine, trace elements, and growth factors) (STS concentration is given in the figure and incubation time is given in FIG. 5). Thereafter, solutions were removed, replaced by complete medium and further incubated for 40 hours. Following the regeneration phase, the cells were lyzed and DNA fragmentation was detected according to manufacturer's instructions (Cell Death detection ELISA^PLUS kit—Roche Diagnostics).
FIG. 10: Comparison of Tat-DAXXp and Tat-FADDp15 alone and in combination in primary cardiomyocytes (A) and in H9c2 cells (B).
Thereafter, the capacity of these peptides to inhibit apoptosis induced by staurosporine was evaluated. Apoptosis was determined using the Cell Death detection ELISA^PLUS kit (Roche) measuring the DNA fragmentation.
In most publications, anti-apoptotic peptides currently available in the art are administrated 3-4 hours prior to apoptosis induction, which is poorly relevant to a clinical application. For that reason, the protocol used in the present study included administration of the peptides together with the staurosporine. […] This was not observed with CPP alone or with the Tat-scrDAXXp or Tat-ncDAXXp negative controls. […] To better compare the results, the DNA fragmentation (described by the enrichment factor) is related to the staurosporine-treated cells (=100%).

CC[C@H](C)[C@H](NC(=O)[C@H](Cc1c[nH]cn1)NC(=O)[C@@H](NC(=O)[C@H](CCCNC(=N)N)NC(=O)CCCCCNC(=O)[C@H](CCCNC(=N)N)NC(=O)[C@H](CCCNC(=N)N)NC(=O)CCCCCNC(=O)[C@H](CCCNC(=N)N)NC(=O)[C@H](CCCNC(=N)N)NC(=O)CCCCCNC(=O)[C@@H](N)CCCNC(=N)N)[C@@H](C)CC)C(=O)N[C@@H](CC(C)C)C(=O)N[C@@H](Cc1ccccc1)C(=O)N[C@@H](CCC(N)=O)C(=O)N[C@@H](CC(N)=O)C(=O)N[C@H](CCCNC(=N)N)C(=O)N[C@@H](CCCNC(=N)N)C(=O)N[C@@H](CCSC)C(=O)N[C@@H](CCCCN)C(=O)N[C@@H](Cc1c[nH]c2ccccc12)C(=O)N[C@@H](Cc1c[nH]cn1)C(=O)N[C@@H](CCCCN)C(=O)N[C@@H](CCCCN)C(=O)N[C@@H](CCCCN)C(=O)N[C@@H](CO)C(=O)N[C@@H](CCCNC(=N)N)C(=O)N[C@@H](CCCCN)C(=O)N[C@@H](CCC(=O)O)C(=O)N[C@@H](CCCCN)C(=O)N[C@@H](CCCCN)C(=O)N[C@@H](CCC(N)=O)C(=O)N[C@H](C(=O)NCC(=O)N[C@@H](CO)C(=O)NCC(=O)N1CCC[C@H]1C(=O)N[C@@H](CC(C)C)C(=O)NCC(N)=O)[C@@H](C)O [Pip2b-DAXXp, (RXR)3-IHILFQNrRMKWHK-KKSRKEKKQTGSGPLG-NH2] (H-R[Ahx]RR[Ahx]RR[Ahx]RIHILFQN[dR]RMKWHKKKSRKEKKQTGSGPLG-NH2; N-terminus assumed)
reduction of DNA fragmentation: 55%

KKSRKEKKQTGSGPLG-NH2 [DAXXp, KKSRKEKKQTGSGPLG-NH2]
ability to decrease cell apoptosis / protect the cells (against STS): capable of decreasing cell apoptosis

GRKKRRQRRRPPQKKSRKEKKQTGSGPLG-NH2 [Tat-DAXXp, GRKKRRQRRRPPQ-KKSRKEKKQTGSGPLG-NH2]
reduction of DNA fragmentation: 44%
